The text below walks through data of PubChem BioAssay AID977621 (Broad Institute, 2014).

Inconclusive results are not listed. Activity calls are given as the source filed them.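 Rule for the calls: active = Wild-type ribosome reporter drop at least double the humanized mutant ribosome reporter drop, growth loss under a set limit; inconclusive = no clear call, values can overlap the other calls; inactive = the rest.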

The test system of the experiment is E. coli wild-type GFP strain growth, fluorescence, 24 h. The experiment in a line: wild-type E. coli growth inhibition versus H69 humanized strain – H69 mutant RFP, wild-type GFP, cherry-pick, dose response (AID 977621).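 Note: wild-type GFP and H69 mutant RFP strains grown together 50/50 in each well.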
[1] abbreviates: E. coli mixed culture, 24 h, measured here: total growth OD600, test 2.

As a reminder, the AC50 is the midpoint of the concentration-response curve, whichever way the signal moves. Turning to `O=C(CSc1nc2ccccc2[nH]1)Nc1cccc(S(=O)(=O)N2CCOCC2)c1`, the AC50 was > 100 µM (inactive). The AC50 under setting [1] worked out at 33.9 µM.
Taken in the same sequence, the figures for `Cc1ccc(-n2nnnc2-c2ccccc2Br)cc1` were > 100 µM (inactive) and 46 µM.
With `O=C(NCCCN1CCOCC1)c1sc2cc([N+](=O)[O-])ccc2c1Cl`, the AC50 was > 100 µM (inactive).
Regarding `CN(Cc1ccc(Cl)s1)C(=O)CNC(=O)CNC(=O)c1ccc(Cl)cc1Cl`, the AC50 was > 100 µM (inactive).
`O=C(CSc1ccccc1)NCCCc1ccccc1` registered an AC50 under setting [1] above 100 µM.
As for `O=C1N[C@@H](Cc2ccccc2)COC(=O)[C@H](Cc2ccc(F)cc2)C/C=C\C[C@H]1CC(=O)N(CCO)Cc1ccccc1`, the AC50 was > 100 µM (inactive).
With `O=C(NCCc1ccccc1)c1ccc2c(c1)S(=O)(=O)c1ccccc1C2=O`, the AC50 was > 100 µM (inactive). The molecule further registered a half-maximal activity concentration (AC50) under setting [1] of 41.5 µM.
Turning to `O=C(c1cc(COc2c(F)cccc2F)on1)N1C[C@H]2CC[C@H]1C2`, the AC50 was > 100 µM (inactive).
Turning to `COc1ccc(CN(CC(O)COCc2ccccc2)S(=O)(=O)c2ccccc2Br)cc1OC` (stereo not given), the AC50 is > 100 µM (inactive). The molecule also gave a concentration at half-maximal activity (AC50) under setting [1] of 28.5 µM.
Take `CCOC(=O)c1nc(C)sc1-c1ccnn1S(=O)(=O)c1ccc(C)cc1`: the AC50 was > 100 µM (inactive).
With `COc1cc(SC)ccc1C(=O)N1CCN(c2ccccc2F)CC1`, the AC50 is > 100 µM (inactive).
`CC1(C(=O)NS(=O)(=O)c2cccc(C#N)c2)CCN1C(=O)C1(c2ccc(Cl)cc2)CCC1` (stereo not given): the AC50 is > 100 µM (inactive). Further, the AC50 under setting [1] was above 100 µM.
Under setting [1], `Cc1cc(C(=O)COC(=O)CNC(=O)c2ccccc2)c(C)n1CC1CCCO1` (stereo not given) registered an AC50 above 100 µM.
With `CCc1ccc(NC(=O)COC(=O)CCCC2=NS(=O)(=O)c3ccccc3N2)cc1`, the AC50 is > 100 µM (inactive).
In the case of `CN1CCN(c2nc(Nc3ccc(O)cc3)nc3ccccc23)CC1`, the AC50 was > 100 µM (inactive).
As to `CC(C)(C)c1ccc(N2C(=O)CSC2c2cccnc2)cc1` (stereo not given), the AC50 under setting [1] was above 100 µM.
For `Cc1ccc(S(=O)(=O)NC(C)C(=O)NCc2ccc(Cl)cc2)cc1` (stereo not given), the AC50 was > 100 µM (inactive). The molecule further registered an AC50 under setting [1] above 100 µM.
Under setting [1], `CCOC(=O)c1cc(-c2ccc(OC)cc2)n[nH]1` showed a concentration at half-maximal activity (AC50) above 100 µM.
`COc1cc2cc(C(=O)Nc3ccc4c(c3)OCCO4)[nH]c2cc1OC`: the AC50 under setting [1] is above 100 µM.
The molecule `COc1ccc(OC)c(NC(=O)COC(=O)C2CCN(C(=O)c3ccc(Cl)cc3)CC2)c1` registered a concentration at half-maximal activity (AC50) under setting [1] above 100 µM.
On to `Cc1ccc(C2NC(=O)c3[nH]nc(-c4ccccc4)c32)cc1` (stereo not given), for which the AC50 is > 100 µM (inactive). Under setting [1], the AC50 worked out at 42.3 µM.
The molecule `COc1cccc(CN(C)Cc2nc(Cc3ccccc3Cl)no2)c1` showed an AC50 under setting [1] of 51.7 µM.
In turn, `Cc1ccc(S(=O)(=O)N2CCCCC2C(=O)N2CCN(c3ccccc3F)CC2)cc1` (stereo not given) had an AC50 under setting [1] above 100 µM.
As for `COc1cccc(NC(=O)C2CCC(CNS(=O)(=O)c3cccs3)CC2)c1` (stereo not given), the AC50 was > 100 µM (inactive).
`O=S(=O)(c1ccccc1)N1CC[C@@H]2[C@H](CO)Nc3ccc(Br)cc3[C@@H]21` showed an AC50 under setting [1] of 43.4 µM.
Take `CCCCNC(=O)c1cc2c(C)cc(C)cc2[nH]1`: the AC50 was > 100 µM (inactive).
`COc1ccc(C2=NN(C(=O)c3cccnc3)C(c3ccccc3)C2)cc1` (stereo not given): the AC50 under setting [1] stood at 1.05 µM.
With `O=C(COC(=O)c1cccc(S(=O)(=O)N2CCCCC2)c1)NCc1cccc(Cl)c1`, the AC50 was > 100 µM (inactive).
Take `Cc1ccccc1-n1ncc2c(SCC(=O)N3c4ccccc4CC3C)ncnc21` (stereo not given): the AC50 was > 100 µM (inactive).
In turn, `C[C@H](CO)N1C[C@H](C)[C@@H](CN(C)Cc2ccncc2)OCc2ccccc2-c2c(n(C)c3ccccc23)C1=O` gave an AC50 under setting [1] of 40.2 µM.
In the case of `COC(=O)C(Cc1csc2ccc(Cl)cc12)NC(=O)c1ccc(Cl)cc1` (stereo not given), the AC50 is > 100 µM (inactive). The same molecule gave an AC50 under setting [1] of 18.4 µM.
On to `COc1ccc(OC)c(CN2CCCC(C(=O)c3ccccc3SC)C2)c1` (stereo not given), for which the AC50 is > 100 µM (inactive).
As for `CN(c1ccccc1)S(=O)(=O)c1cccc(C(=O)OCC(=O)NCc2ccco2)c1`, the AC50 was > 100 µM (inactive).
`Cc1ccc(C(=O)C2CCN(CC(=O)Nc3nc(C)cs3)CC2)cc1`: the AC50 is > 100 µM (inactive). The half-maximal activity concentration (AC50) under setting [1] stood at 7.66 µM.
For the molecule `CS(=O)(=O)N(CC(=O)N1CCc2ccccc2C1)c1ccc(Br)cc1`, the AC50 was > 100 µM (inactive). Under setting [1], the half-maximal activity concentration (AC50) was determined as 33.1 µM.
For the molecule `COc1cc(C2CC(=O)Oc3cc(C)cc(C)c32)cc(OC)c1OC` (stereo not given), the AC50 was > 100 µM (inactive).
Turning to `CCCCc1cc2c(cc1NC(=O)CN1CCCCC1)OCCO2`, the AC50 was > 100 µM (inactive). This molecule yielded a half-maximal activity concentration (AC50) under setting [1] above 100 µM.
As for `Cc1ccc(C(=O)CSc2nnc(COc3cccc4cccnc34)o2)cc1`, the AC50 was > 100 µM (inactive). Also, the AC50 under setting [1] stood at 46.3 µM.
With `CCCCNC(=O)c1onc(CSc2cc(C)cc(C)c2)c1C(=O)O`, the concentration at half-maximal activity (AC50) under setting [1] worked out at 34.2 µM.
Consider `CC(=O)NCCOc1nc(N2CCCCC2)nc(N2CCCCC2)n1`, for which, under setting [1], the half-maximal activity concentration (AC50) is above 100 µM.
For `CC(C)(CC(=O)O)CC(=O)NCc1c(Cl)cccc1Sc1ccc(Cl)cc1`, the AC50 is > 100 µM (inactive).
Under setting [1], `COc1cc(-c2ccc(N3C(c4ccsc4)=Cc4ccc(F)cc4C3c3c[nH]c4ccc(C#N)cc34)cc2)cc(OC)c1OC` (stereo not given) displayed a concentration at half-maximal activity (AC50) above 100 µM.
On to `C=CCn1c(C)cc(C(=O)CSc2nnc(C3CC3)n2C2CC2)c1C`, for which the half-maximal activity concentration (AC50) under setting [1] was above 100 µM.
Regarding `COc1ccc(-c2cn(-c3ccc(Cl)cc3)c3[n+]2CCCCC3)cc1`, the AC50 is > 100 µM (inactive).
On to `Cc1cc(C(C)(C)C)oc1C(=O)N(CC(=O)NC1CCCC1)c1c(C)cccc1C`, for which the AC50 is > 100 µM (inactive). The same molecule had an AC50 under setting [1] above 100 µM.
Take `Cc1ccc(C(=O)Nc2ccc3ncccc3c2)cc1`: the AC50 was > 100 µM (inactive).
In the case of `O=C(Nc1ccc2nc3n(c(=O)c2c1)CCCCC3)c1c(F)ccc([N+](=O)[O-])c1F`, the AC50 is > 100 µM (inactive).
Take `O=C(Cn1cnc2ccccc21)c1ccc(Br)cc1`: the AC50 was > 100 µM (inactive).
As for `OC(COc1ccc(Cl)cc1)CN1CCN(c2ccccn2)CC1` (stereo not given), the AC50 was > 100 µM (inactive).
Turning to `CN(C)C(CNS(=O)(=O)c1cc([N+](=O)[O-])ccc1Cl)c1ccco1` (stereo not given), the AC50 was > 100 µM (inactive).
For `O=C(C[C@H]1CC[C@H]2[C@@H](COC[C@@H](O)CN2C(=O)Nc2ccc(Cl)cc2)O1)N1CCCCC1`, the AC50 was > 100 µM (inactive).
`O=C(c1ccc(N2CCCCC2)c([N+](=O)[O-])c1)N1CCN(c2ccccn2)CC1`: the AC50 was > 100 µM (inactive). Moreover, under setting [1], the AC50 was above 100 µM.
Consider `CCOC(=O)c1c(CS(=O)(=O)c2ccccc2)n(C)c2cc(Br)c(O)cc12`, for which the AC50 is > 100 µM (inactive). The molecule further showed an AC50 under setting [1] above 100 µM.
As to `Nc1c(C(=O)NCCN2CCOCC2)c2nc3ccccc3nc2n1Cc1ccccc1`, the AC50 was > 100 µM (inactive). Under “measured here: total growth OD600, test 2”, this molecule returned a concentration at half-maximal activity (AC50) above 100 µM.
Under setting [1], `O=C(COC(=O)C1CC2C=CC1C2)NCCc1ccccc1` (stereo not given) displayed an AC50 above 100 µM.
Under setting [1], `Cc1cc(NCc2ccccn2)n2nc(C)c(-c3ccccc3)c2n1` came in with an AC50 of 49.3 µM.
In turn, `CCC(C(=O)Nc1ccsc1C(=O)OC)c1ccccc1` (stereo not given) had a concentration at half-maximal activity (AC50) under setting [1] of 49.2 µM.
Consider `C[C@@H]1CN([C@@H](C)CO)C(=O)c2cccc(NC(=O)Nc3ccccc3)c2O[C@@H]1CN(C)S(=O)(=O)c1ccc(Cl)cc1`, for which the AC50 was > 100 µM (inactive). This molecule also displayed an AC50 under setting [1] of 37.7 µM.
Regarding `CC(C)Oc1ccc(C(=O)Nc2cccc3cccnc23)cc1`, the AC50 under setting [1] is above 100 µM.
In the case of `CCc1cc(C(=O)N2CCCC(C(=O)c3cccc4ccccc34)C2)n(C)n1` (stereo not given), under setting [1], the AC50 is above 100 µM.
As for `CCOc1ccccc1C(=O)OCC(=O)NCCc1ccc(OC)cc1`, the AC50 was > 100 µM (inactive).
Same read-out and setting: as for `Cc1n[nH]c(C)c1S(=O)(=O)N1CCCC(C(=O)Nc2ccc(Br)cc2)C1` (stereo not given), the figure is > 100 µM (inactive); as for `CC(C)Nc1nnc(SCC(=O)Nc2sccc2C#N)s1`, > 100 µM (inactive).
For the molecule `CC(=O)Nc1cccc(Nc2nc(-c3ccccc3)nc3ccccc23)c1`, the AC50 was > 100 µM (inactive). For the same molecule, under setting [1], the concentration at half-maximal activity (AC50) was determined as 5.27 µM.
As for `S=c1[nH]c2cc(Cl)ccc2s1`, the AC50 was > 100 µM (inactive).
Turning to `O=C(O)c1cc(-c2ccc(Cl)s2)nc2ccccc12`, the AC50 under setting [1] is above 100 µM.
Take `COc1ccc(C2CC(=O)Oc3cc(C)cc(C)c32)cc1` (stereo not given): the AC50 under setting [1] was above 100 µM.
With `CCSc1nc2ccccc2c(=O)n1Cc1ccc(F)cc1`, the AC50 is > 100 µM (inactive). The AC50 under setting [1] is 49.4 µM.
Taken in the same sequence, the figures for `CSC1=NCCN1C(=O)Cc1ccc(-c2ccccc2)cc1` were > 100 µM (inactive) and 48.3 µM.
In the case of `O=C(COc1cccc2c1CCN(Cc1ccccc1F)C2=O)N1CCCCC1`, the AC50 was > 100 µM (inactive).
Regarding `COc1ccccc1-c1cc2nc(NCCc3ccncc3)ccn2n1`, the AC50 was > 100 µM (inactive).
Take `CCN(C(=O)COC(=O)c1cc(-c2cccs2)nc2ccccc12)C1CCS(=O)(=O)C1` (stereo not given): the AC50 is > 100 µM (inactive).
For `O=c1[nH]c(C2CCN(S(=O)(=O)c3ccc4c(c3)OCCO4)CC2)nc2c1nnn2Cc1ccccc1F`, the AC50 is > 100 µM (inactive).
With `CCN(c1ccc(OC)cc1)S(=O)(=O)c1cc(-c2cc(C)no2)ccc1OC`, the AC50 was > 100 µM (inactive). Under setting [1], the AC50 came out at 36.8 µM.
Regarding `Cc1ccc(Oc2ccc(S(=O)(=O)N3CCOCC3)cc2C(N)=O)cc1C`, the AC50 was > 100 µM (inactive).
Regarding `Cc1noc(C)c1NC(=O)Nc1ccc2c(c1)C(=O)N([C@H](C)CO)C[C@H](C)[C@H](CN(C)C(=O)Nc1ccc3c(c1)OCO3)OCCCC[C@@H](C)O2`, the half-maximal activity concentration (AC50) under setting [1] is above 100 µM.
Under setting [1], `CN(c1ccc(C(=O)NCc2cccs2)cc1)S(=O)(=O)c1ccccc1` came in with an AC50 below 0.6 µM.
With `CC(NC(=O)C12CC3CC(C)(CC(C)(C3)C1)C2)c1ccncc1` (stereo not given), under setting [1], the AC50 was above 100 µM.
`CCCCc1ccc(S(=O)(=O)Nc2ccc(C)c(NS(C)(=O)=O)c2)cc1` had a half-maximal activity concentration (AC50) under setting [1] of 49.5 µM.
